Measured values taken from patent US9663513B2, “Pyrimidine PDE10 inhibitors” (Merck Sharp & Dohme Corp., priority 2012, dated 2017).

These compounds were tested against human PDE10A2 (Homo sapiens (Human), UniProt Q9Y233) (assay: PDE10 fluorescence polarization (IMAP FP) inhibition assay). Conditions: human PDE10A2 from transfected AD293 cells; FAM-labeled cAMP 50 nM; apparent inhibition constant; read-out: PDE10A Ki.
Format: biochemical
Method: The activity of the compounds in accordance with the present invention as PDE10 inhibitors may be readily determined without undue experimentation using a fluorescence polarization (FP) methodology that is well known in the art (Huang, W., et al., J. Biomol Screen, 2002, 7: 215).
In a typical experiment the PDE10 inhibitory activity of the compounds of the present invention was determined in accordance with the following experimental method. PDE10A2 was amplified from human fetal brain cDNA (Clontech, Mountain View, Calif.) using a forward primer corresponding to nucleotides 56-77 of human PDE10A2 (Accession No. AF127480, Genbank Identifier 4894716), containing a Kozak consensus sequence, and a reverse primer corresponding to nucleotides 2406-2413 of human PDE10A2 (Accession No. AF127480, Genbank Identifier 4894716). Amplification with Easy-A polymerase (Stratagene, La Jolla, Calif.) was 95° C. for 2 minutes followed by thirty three cycles of 95° C. for 40 seconds, 55° C. for 30 seconds, and 72° C. for 2 minutes 48 seconds. Final extension was 72° C. for 7 minutes. The PCR product was TA cloned into pcDNA3.2-TOPO (Invitrogen, Carlsbad, Calif.) according to standard protocol. AD293 cells with 70-80% confluency were transiently transfected with human PDE10A2/pcDNA3.2-TOPO using Lipofectamine 2000 according to manufacturer specifications (Invitrogen, Carlsbad, Calif.). Cells were harvested 48 hours post-transfection and lysed by sonication (setting 3, 10×5 sec pulses) in a buffer containing 20 mM HEPES, 1 mM EDTA and protease inhibitor cocktail (Roche). Lysate was collected by centrifugation at 75,000×g for 20 minutes. Supernatant containing the cytoplasmic fraction was used for evaluation of PDE10A2 activity. The fluorescence polarization assay for cyclic nucleotide phosphodiesterases was performed using an IMAP® FP kit supplied by Molecular Devices, Sunnyvale, Calif. (product # R8139). IMAP® technology has been applied previously to phosphodiesterase assays (Huang, W., et al., J. Biomol Screen, 2002, 7: 215). Assays were performed at room temperature in 384-well microtiter plates with an incubation volume of 20.2 μL. Solutions of test compounds were prepared in DMSO and serially diluted with DMSO to yield 8 μL of each of 10 solutions differing by 3-fold in concentration, at 32 serial dilutions per plate. […] 0% of inhibition is determined by using DMSO (1% final concentrations).
A Labcyte Echo 555 (Labcyte, Sunnyvale, Calif.) is used to dispense 200 nL from each well of the titration plate to the 384 well assay plate. A solution of enzyme (1/1600 dilution from aliquots; sufficient to produce 20% substrate conversion) and a separate solution of FAM-labeled cAMP PDE from Molecular Devices (product # R7506), at a final concentration of 50 nM are made in the assay buffer (10 mM Tris HCl, pH 7.2, 10 mM MgCl2, 0.05% NaN3 0.01% Tween-20, and 1 mM DTT). The enzyme and the substrate are then added to the assay plates in two consecutive additions of 10 μL, and then shaken to mix. The reaction is allowed to proceed at room temperature for 30 minutes. […] The enzymatic reaction is stopped by addition of 60 μL of the binding solution to each well of the assay plates and the plates are sealed and shaken for 10 seconds. The plate was incubated at room temperature for at least one hour prior to determining the fluorescence polarization (FP). The parallel and perpendicular fluorescence of each well of the plate was measured using a Perkin Elmer EnVision™ plate reader (Waltham, Mass.).
Fluorescence polarization (mP) was calculated from the parallel (S) and perpendicular (P) fluorescence of each sample well and the analogous values for the median control well, containing only substrate (So and Po), using the following equation: Polarization(mP)=1000*(S/So−P/Po)/(S/So+P/Po).
Dose-inhibition profiles for each compound were characterized by fitting the mP data to a four-parameter equation given below.

human PDE10A2, sequence (Q9Y233 267-1055): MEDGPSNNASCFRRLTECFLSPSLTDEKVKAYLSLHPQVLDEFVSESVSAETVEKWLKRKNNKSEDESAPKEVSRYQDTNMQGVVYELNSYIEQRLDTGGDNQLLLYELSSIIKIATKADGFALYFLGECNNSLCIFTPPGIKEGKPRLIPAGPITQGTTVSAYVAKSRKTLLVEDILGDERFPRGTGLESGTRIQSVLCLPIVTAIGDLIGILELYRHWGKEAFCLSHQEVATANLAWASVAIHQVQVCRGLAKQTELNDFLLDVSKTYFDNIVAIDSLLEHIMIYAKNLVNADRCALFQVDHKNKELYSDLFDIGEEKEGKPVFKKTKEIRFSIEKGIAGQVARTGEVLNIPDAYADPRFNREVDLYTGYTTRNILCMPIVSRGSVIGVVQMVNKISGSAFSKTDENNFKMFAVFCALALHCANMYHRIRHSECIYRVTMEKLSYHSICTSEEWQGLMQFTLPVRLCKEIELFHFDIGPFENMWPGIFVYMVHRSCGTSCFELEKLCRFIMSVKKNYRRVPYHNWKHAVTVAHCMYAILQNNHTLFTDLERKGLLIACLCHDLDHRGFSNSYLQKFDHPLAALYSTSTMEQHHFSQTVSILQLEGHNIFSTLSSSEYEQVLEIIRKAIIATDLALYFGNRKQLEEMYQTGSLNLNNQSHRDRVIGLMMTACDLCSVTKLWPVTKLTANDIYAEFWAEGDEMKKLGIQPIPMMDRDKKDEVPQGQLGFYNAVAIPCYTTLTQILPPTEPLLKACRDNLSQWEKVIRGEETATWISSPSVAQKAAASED

| Compound | Ki |
| --- | --- |
| COc1cc(-c2cnc(C)nc2OC[C@H]2C[C@@H]2c2ccc(C)cn2)cnn1 [Example 56, 3-methoxy-5-(2-methyl-4-(((1S,2S)-2-(5-methylpyridin-2-yl)cyclopropyl)methoxy)pyrimidin-5-yl)pyridazine] | 6.12 nM |
| COc1ccc([C@H]2C[C@@H]2COc2nc(C)ncc2C2=CC(=O)CC2)nc1 [Example 77, 3-(4-(((1S,2S)-2-(5-methoxypyridin-2-yl)cyclopropyl)methoxy)-2-methylpyrimidin-5-yl)cyclopent-2-enone] | 6.28 nM |
| COc1ccc([C@H]2C[C@@H]2COc2nc(C)ncc2-c2ccc([S+](C)[O-])nc2)nc1 (single isomer, unassigned) [Example 65] | 2.62 nM |
| COc1ccc([C@H]2C[C@@H]2COc2nc(C)ncc2-c2ccc(C(N)=O)nc2)nc1 [Example 105, 5-(4-(((1S,2S)-2-(5-methoxypyridin-2-yl)cyclopropyl)methoxy)-2-methylpyrimidin-5-yl)picolinamide] | 1.41 nM |
| Cc1ccc([C@H]2C[C@@H]2COc2nc(C)ncc2-c2ccc3ncc(C)n3c2)nc1 [Example 130, 3-methyl-6-(2-methyl-4-(((1S,2S)-2-(5-methylpyridin-2-yl)cyclopropyl)methoxy)pyrimidin-5-yl)imidazo[1,2-a]pyridine] | 0.39 nM |
| Cc1ncc(-c2ccc(C(C)O)cc2)c(OC[C@H]2C[C@@H]2c2ccccn2)n1 (stereo partly drawn) [Example 122, 1-(4-(2-methyl-4-(((1S,2S)-2-(pyridin-2-yl)cyclopropyl)methoxy)pyrimidin-5-yl)phenyl)ethanol] | 2.85 nM |
| Cc1ccc([C@H]2C[C@@H]2COc2nc(C)ncc2-c2cccc(OC(F)(F)F)c2)nc1 [Example 12, 2-methyl-4-(((1S,2S)-2-(5-methylpyridin-2-yl)cyclopropyl)methoxy)-5-(3-(trifluoromethoxy)phenyl)pyrimidine] | 1.11 nM |
| Cc1ccc([C@H]2C[C@@H]2COc2nc(C)ncc2-c2ccc(C(C)O)nc2)nc1 (stereo partly drawn) [Example 141, 1-(5-(2-methyl-4-(((1S,2S)-2-(5-methylpyridin-2-yl)cyclopropyl)methoxy)pyrimidin-5-yl)pyridin-2-yl)ethanol] | 0.24 nM |
| COc1ccc([C@H]2C[C@@H]2COc2nc(C)ncc2-c2ccc(C3(O)COC3)nc2)nc1 [Example 91] | 0.16 nM |
| Cc1cc(-c2cnc(C)nc2OC[C@H]2C[C@@H]2c2ccc3ccccc3n2)ccn1 [Example 153, 2-((1S,2S)-2-((2-methyl-5-(2-methylpyridin-4-yl)pyrimidin-4-yloxy)methyl)cyclopropyl)quinoline] | 0.01 nM |
| COC(=O)c1cnc(-c2cnc(C)nc2OC[C@H]2C[C@@H]2c2ccc(OC)cn2)cn1 [Example 97, methyl 5-(4-(((1S,2S)-2-(5-methoxypyridin-2-yl)cyclopropyl)methoxy)-2-methylpyrimidin-5-yl)pyrazine-2-carboxylate] | 9.74 nM |
| CCc1ccc(-c2cnc(C)nc2OC[C@H]2C[C@@H]2c2ccc3ccccc3n2)cc1 (single isomer, unassigned) [Example 31] | 7.95 nM |
| Cc1ccc([C@H]2C[C@@H]2COc2nc(C)ncc2-c2c(C)cccc2C)nc1 [Example 11, 5-(2,6-dimethylphenyl)-2-methyl-4-(((1S,2S)-2-(5-methylpyridin-2-yl)cyclopropyl)methoxy)pyrimidine] | 4.43 nM |
| COc1ccc([C@H]2C[C@@H]2COc2nc(C)ncc2-c2cc(Cl)ncc2OCOCC[Si](C)(C)C)nc1 [Example 112, 5-(2-chloro-5-((2-(trimethylsilyl)ethoxy)methoxy)pyridin-4-yl)-4-(((1S,2S)-2-(5-methoxypyridin-2-yl)cyclopropyl)methoxy)-2-methylpyrimidine] | 19.2 nM |
| COc1ccc([C@H]2C[C@@H]2COc2nc(C)ncc2-c2ccc([S+](C)[O-])nc2)nc1 (single isomer, unassigned) [Example 64] | 1.75 nM |
| CCc1ccc(-c2cnc(C)nc2OC[C@H]2C[C@@H]2c2ccc3ccccc3n2)cc1 (single isomer, unassigned) [Example 30] | 0.37 nM |

More lines, now with the values ahead:

| Ki | Compound |
| --- | --- |
| 2.06 nM | COc1ccc([C@H]2C[C@@H]2COc2nc(C)ncc2-c2ccc(-c3nnnn3C(F)F)cc2)nc1 [Example 228, 5-(4-(1-(difluoromethyl)-1H-tetrazol-5-yl)phenyl)-4-(((1S,2S)-2-(5-methoxypyridin-2-yl)cyclopropyl)methoxy)-2-methylpyrimidine] |
| 2.98 nM | CCc1ccc([C@@H]2C[C@@H]2COc2nc(C)ncc2C2CCC3(CC2)OCCO3)nc1 [Example 194, 4-(((1S,2R)-2-(5-ethylpyridin-2-yl)cyclopropyl)methoxy)-2-methyl-5-(1,4-dioxaspiro[4.5]decan-8-yl)pyrimidine] |
| 22.9 nM | COc1ccc([C@H]2C[C@@H]2COc2nc(C)ncc2-c2cc(=O)[nH]n2C)nc1 [Example 238, 5-(4-(((1S,2S)-2-(5-methoxypyridin-2-yl)cyclopropyl)methoxy)-2-methylpyrimidin-5-yl)-1-methyl-1,2-dihydropyrazol-3-one] |
| 2.84 nM | COc1ccc([C@H]2C[C@@H]2COc2nc(C)ncc2C2CCC3(CC2)OCCO3)nc1 [Example 188, 4-(((1S,2S)-2-(5-methoxypyridin-2-yl)cyclopropyl)methoxy)-2-methyl-5-(1,4-dioxaspiro[4.5]decan-8-yl)pyrimidine] |
| 1.64 nM | COc1ccc([C@H]2C[C@@H]2COc2nc(C)ncc2-c2ccc(-c3nnn(C)n3)nc2)nc1 [Example 230, 4-(((1S,2S)-2-(5-methoxypyridin-2-yl)cyclopropyl)methoxy)-2-methyl-5-(6-(2-methyl-2H-tetrazol-5-yl)pyridin-3-yl)pyrimidine] |
| 13.5 nM | Cc1ncc(-c2ccc(C(C)(C)O)nc2)c(OC[C@H]2C[C@@H]2c2ccc(C(F)(F)F)cn2)n1 [Example 183, 2-(5-(2-methyl-4-(((1S,2S)-2-(5-(trifluoromethyl)pyridin-2-yl)cyclopropyl)methoxy)pyrimidin-5-yl)pyridin-2-yl)propan-2-ol] |
| 12.1 nM | Cc1ccc([C@H]2C[C@@H]2COc2nc(C)ncc2C2CCC(F)(F)CC2)nc1 [Example 209, 5-(4,4-Difluorocyclohexyl)-2-methyl-4-(((1S,2S)-2-(5-methylpyridin-2-yl)cyclopropyl)methoxy)pyrimidine] |
| 7.7 nM | COc1ccc([C@H]2C[C@@H]2COc2nc(C)ncc2-c2cnco2)nc1 [Example 255, 5-(4-(((1S,2S)-2-(5-methoxypyridin-2-yl)cyclopropyl)methoxy)-2-methylpyrimidin-5-yl)oxazole] |
| 0.13 nM | COc1ccc([C@H]2C[C@@H]2COc2nc(C)ncc2-c2ccc(-c3nn[nH]n3)nc2)nc1 [Example 229, 5-(6-(2H-tetrazol-5-yl)pyridin-3-yl)-4-(((1S,2S)-2-(5-methoxypyridin-2-yl)cyclopropyl)methoxy)-2-methylpyrimidine] |
| 14.8 nM | Cc1cccc([C@H]2C[C@@H]2COc2nc(C)ncc2-c2ccc(C(C)(C)O)nc2)n1 [Example 176, 2-(5-(2-methyl-4-(((1S,2S)-2-(6-methylpyridin-2-yl)cyclopropyl)methoxy)pyrimidin-5-yl)pyridin-2-yl)propan-2-ol] |
| 3.48 nM | CCc1ccc([C@@H]2C[C@@H]2COc2nc(C)ncc2C2CCC(=O)CC2)nc1 [Example 195, 4-(4-(((1S,2R)-2-(5-ethylpyridin-2-yl)cyclopropyl)methoxy)-2-methylpyrimidin-5-yl)cyclohexanone] |
| 5.95 nM | CCc1ccc([C@H]2C[C@@H]2COc2nc(C)ncc2-c2ccc(C(C)(C)O)nc2)nc1 (single isomer, unassigned) [Example 180] |
